# Measured values from patent publication US8372855B2, “Cyclohexyloxy-substituted heterocyclics, medicines containing these compounds and method for the production thereof” (Boehringer Ingelheim International GmbH, priority 2008, dated 2013).
# Biological target: T1, human EGF-R (Homo sapiens, UniProt P00533)
# T1 construct: expressed in transfected cells
# Test: Inhibition of EGFR-dependent proliferation (EGF-stimulated murine haematopoietic cell line expressing human EGF-R, Cell Titer 96 AQueous assay)
# Assay type: cell-based
# Conditions: 20 ng/ml human EGF, 48 hours at 37° C.
# Protocol: A murine haematopoietic cell line is genetically modified so as to express functional human EGF-R. The proliferation of this cell line can therefore be stimulated by EGF.
# The test is carried out as follows:
# The cells are cultivated in RPMI/1640 medium. The proliferation is stimulated with 20 ng/ml of human EGF (Promega). To investigate the inhibitory activity of the compounds according to the invention these compounds are dissolved in 100% dimethylsulphoxide (DMSO) and added to the cultures in various dilutions, the maximum DMSO concentration being 1%. The cultures are incubated for 48 hours at 37° C.
# In order to determine the inhibitory activity of the compounds according to the invention the relative cell number is measured in O.D. units using the Cell Titer 96™ AQueous Non-Radioactive Cell Proliferation Assay (Promega). The relative cell number is calculated as a percentage of the control and the concentration of active substance which inhibits the proliferation of the cells by 50% (IC50) is derived therefrom.
# T1 sequence (P00533 25-1210): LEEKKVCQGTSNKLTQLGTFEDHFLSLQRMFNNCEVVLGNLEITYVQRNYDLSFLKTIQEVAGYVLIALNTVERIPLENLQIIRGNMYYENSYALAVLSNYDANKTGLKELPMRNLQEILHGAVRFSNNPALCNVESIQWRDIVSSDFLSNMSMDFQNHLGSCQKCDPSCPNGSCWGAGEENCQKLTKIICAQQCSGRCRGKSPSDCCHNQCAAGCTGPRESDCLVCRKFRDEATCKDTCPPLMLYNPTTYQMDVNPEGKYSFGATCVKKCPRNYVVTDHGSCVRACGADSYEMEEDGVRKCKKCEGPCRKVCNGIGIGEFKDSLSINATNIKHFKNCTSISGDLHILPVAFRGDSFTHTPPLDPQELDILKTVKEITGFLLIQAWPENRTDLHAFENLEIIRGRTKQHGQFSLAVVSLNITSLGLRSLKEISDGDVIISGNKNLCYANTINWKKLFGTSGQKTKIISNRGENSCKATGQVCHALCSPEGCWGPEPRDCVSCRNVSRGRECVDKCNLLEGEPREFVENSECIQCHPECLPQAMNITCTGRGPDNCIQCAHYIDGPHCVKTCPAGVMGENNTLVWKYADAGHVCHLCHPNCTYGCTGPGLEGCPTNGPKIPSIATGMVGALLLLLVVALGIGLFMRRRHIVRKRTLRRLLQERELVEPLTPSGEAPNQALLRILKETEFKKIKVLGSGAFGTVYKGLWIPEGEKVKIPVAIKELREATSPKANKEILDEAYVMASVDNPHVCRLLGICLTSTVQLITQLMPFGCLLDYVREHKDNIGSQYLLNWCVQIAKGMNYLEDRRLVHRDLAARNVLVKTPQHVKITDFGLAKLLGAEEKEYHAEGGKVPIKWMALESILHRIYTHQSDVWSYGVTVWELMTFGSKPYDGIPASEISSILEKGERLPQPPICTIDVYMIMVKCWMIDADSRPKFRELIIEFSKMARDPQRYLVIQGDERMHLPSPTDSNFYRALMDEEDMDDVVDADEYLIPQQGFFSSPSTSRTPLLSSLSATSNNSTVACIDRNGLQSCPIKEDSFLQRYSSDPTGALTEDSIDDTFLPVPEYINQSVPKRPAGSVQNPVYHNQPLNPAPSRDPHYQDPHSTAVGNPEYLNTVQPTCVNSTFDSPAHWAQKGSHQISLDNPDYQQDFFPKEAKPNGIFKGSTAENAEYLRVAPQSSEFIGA
row,Structure (SMILES),IC50
1,"COc1cc2ncnc(Nc3cccc(Cl)c3F)c2cc1O[C@H]1CC[C@@H](N2CCN(CC3CC3)C(=O)C2)CC1 [1(1), cis]",10.1 nM
2,"COc1cc2ncnc(Nc3cccc(Cl)c3F)c2cc1O[C@H]1CC[C@H](N2CCN(CC3CC3)C(=O)C2)CC1 [1(1), trans]",1.7 nM
3,"CCCCN1CCN([C@H]2CC[C@@H](Oc3cc4c(Nc5cccc(Cl)c5F)ncnc4cc3OC)CC2)CC1=O [1(2), cis]",12.1 nM
4,"CCCCN1CCN([C@H]2CC[C@H](Oc3cc4c(Nc5cccc(Cl)c5F)ncnc4cc3OC)CC2)CC1=O [1(2), trans]",3.1 nM

# More lines, now with the values ahead:
row,IC50,Structure (SMILES)
1,9.3 nM,"COc1cc2ncnc(Nc3cccc(Cl)c3F)c2cc1O[C@H]1CC[C@@H](N2CCN(C3CCOCC3)C(=O)C2)CC1 [1(3), cis]"
2,1.6 nM,"COc1cc2ncnc(Nc3cccc(Cl)c3F)c2cc1O[C@H]1CC[C@H](N2CCN(C3CCOCC3)C(=O)C2)CC1 [1(3), trans]"
3,7.1 nM,"CCN1CCN([C@H]2CC[C@@H](Oc3cc4c(Nc5cccc(Cl)c5F)ncnc4cc3OC)CC2)CC1=O [1, cis]"
4,1.3 nM,"CCN1CCN([C@H]2CC[C@H](Oc3cc4c(Nc5cccc(Cl)c5F)ncnc4cc3OC)CC2)CC1=O [1, trans]"
